{"source": "patent US8729047B2", "about": "“Compositions for inhibiting redox-sensitive GTPases” (Board of Regents, The University of Texas System, priority 2010, dated 2014)", "key": {"[1]": {"molecular_target": "T1, Ras (Homo sapiens, UniProt P01112, G12V)", "T1 construct": "endogenous in cells; text also names HT1080", "test": "Ras expression and activity in T24 / HT1080 cells", "assay_type": "cell-based", "details": "T24 (or HT1080) cells, 6-TG 1 μM every 48 h and DETA/NO 10 μM every 20 h, longer than 10 days; FIG. 8", "experimental": "(§1) FIG. 8. Examination of Ras and Raf-1 activity in T24 cells treated with various reagents. […] The total Raf-1 expression also was determined using an anti-Raf-1 antibody. Actin expression in cells was shown as controls."}, "[2]": {"molecular_target": "T2, C20S RhoC (Homo sapiens, UniProt P08134, C20S)", "T2 construct": "made in house; host or cells: E. coli", "T2 sequence (P08134 whole entry C20S)": "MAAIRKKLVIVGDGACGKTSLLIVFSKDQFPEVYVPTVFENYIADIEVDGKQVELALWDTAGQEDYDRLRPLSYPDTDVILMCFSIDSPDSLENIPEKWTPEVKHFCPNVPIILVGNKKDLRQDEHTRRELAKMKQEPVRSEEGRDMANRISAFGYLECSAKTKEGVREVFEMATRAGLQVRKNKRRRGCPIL", "test": "Titration of .NO2-treated RhoC-6-TGDP complex with [3H]GDP with/without DTT (FIG. 16D)", "assay_type": "binding", "details": ".NO2-treated 6-TGDP C20S RhoC complex, read-out: appKD for [3H]GDP", "experimental": "FIG. 16. Kinetic properties of RhoC with 6-TGDP in the presence or absence of a redox agent. All kinetic analyses are described elsewhere herein. (A) ^appKD values of Rac1, RhoA, RhoC, and RhoC C20S for 6-TGDP were estimated to be 7.9, 11.6, 11.8, and 11.2 μM, respectively. ^trueKD values of Rac1, RhoA, and RhoC for 6-TGDP were then calculated to be 5.1, 10.8, 11.1, and 10.5 μM, respectively, by using a compensation equation, ^trueKD for 6-TGDP=^appKD for 6-TGDP/(1+[[^3H]GDP]/^trueKD for GDP) (Heo, J., and Hong, I. (2010) Biochemistry 49, 3965-3976), in conjunction with the values given. […] The GDP dissociation rates from RhoC C20S by NO, .NO2, and N2O3 were estimated to be 0.02×10^−3, 0.05×10^−3, and 0.04×10^−3 s^−1, respectively. […] (D) ^appKD values of RhoC for [^3H]GDP in the presence or absence of DTT were estimated to be 22.4 μM and […], respectively. ^appKD values of C20S RhoC for [^3H]GDP in the presence or absence of DTT were determined to be 24.8 μM and 25.2 μM, respectively. The regression values associated with these fits were >0.8595. […]\n(d) The effect of .NO2 on the dissociation of 6-TGDP from RhoC was determined by treating the RhoC-6-TGDP complex titration with various concentrations of [^3H]GDP in the presence and absence of a reducing agent of either dithiothreitol (DTT) or β-mercaptoethanol. […]"}, "[3]": {"test_system": "Ras", "test": "Ras expression and activity in T24 / HT1080 cells", "assay_type": "cell-based, human", "details": "T24 and HT1080 cells, 8-TG 1 μM with NO donor; not shown", "experimental": "as §1"}, "[4]": {"test_system": "A7r5 cells", "test": "Viability / cytotoxicity of A7r5 cells", "assay_type": "cell-based, rat", "details": "5 days of treatment; FIG. 24", "excerpt": "FIG. 24. Effects of 6- and 8-TG on A7r5 cells. Treatment of cells with 6- or 8-TG is described in FIGS. 19 and 21. The image associated with the effect of 6- or 8-TG was taken after 5 days of treatment."}}, "note": "Where two headings read alike, the source gives them in different places.", "data": [{"smiles": "Nc1nc2nc[nH]c2c(=S)[nH]1", "note": "[6-TG, 6-thioguanine]", "values": [{"measurement": "Ras inactivation", "setting": "[1]", "value": "significant amount of Ras (per cell mass) was inactivated"}]}, {"smiles": "Nc1nc2c(ncn2[C@@H]2O[C@H](COP(=O)(O)OP(=O)(O)O)[C@@H](O)[C@H]2O)c(=O)[nH]1", "note": "[GDP]", "values": [{"measurement": "Kd", "setting": "[2]; absence of DTT", "value": 25.2, "unit": "µM"}, {"measurement": "Kd", "setting": "[2]; presence of DTT", "value": 24.8, "unit": "µM"}]}, {"smiles": "Nc1nc2[nH]c(S)nc2c(=O)[nH]1", "note": "[8-TG, 2-amino-8-mercapto-1H-purin-6(9H)-one]", "values": [{"measurement": "expression and activity of Ras", "setting": "[3]", "value": "virtually unchanged"}, {"measurement": "viability / cytotoxicity of A7r5 cells", "setting": "[4]", "value": "did not alter the viability"}]}]}
